Results published in US6355659B1, “4-(4-Chlorophenyl)-1236-tetrahydro-1(1H-124-triazol-1-yl)butty)pyrideine and salts thereof; pharmaceutical compositions and method of treating psychoses utilizing same” (Laboratorios Del Dr. Esteve, S.A., priority 1994, dated 2002).
Counter-ions that a name gives are not always drawn. Like-named read-outs stand apart in the source and are kept apart here.

Tests used:
catalepsy = test: Induction of catalepsy in rats; assay type: in vivo; conditions: s.c.
From the text: The induction of catalepsy in rats [J. Robert et al., J. Pharmacol. Exp. Ther., 1986, 239, 124] is a parameter that is commonly employed for determining the ability of antipsychotics to induce extrapyramidal effects. The typical antipsychotics are those which, in spite of being very powerful in specific tests of antipsychotic activity, induce extrapyramidal effects, and this is detected in the catalepsy test. The best known of the typical antipsychotics is haloperidol, whereas the best known of the atypical antipsychotics is clozapine.

protein c-fos = test: Induction of the protein c-fos in various brain areas in the rat (Western blot); assay type: in vivo; conditions: sc; for activity at 30 mg/kg: rat, acute treatment, 30 mg/kg s.c.
From the text: Induction of the Protein c-fos in Various Brain Areas in the Rat
Acute treatment with various antipsychotics is characterized by the induction of the protein c-fos, owing to the rapid induction off the c-fos gene in various areas of the limbic and extrapyramidal systems [M. Dragunow et al., Neuroscience, 1990, 37, 287-294; J. C. Miller, J. Neurochem., 1990, 54, 1453-1455; A. Y. Deutch et al., Mol. Cell. Neurosci., 1992, 3, 332-341; T. V. Nguyen et al., Proc. Natl. Acad. Sci. USA, 1992, 89, 4270-4274; G. S. Robertson and H. C. Fibinger, Neuroscience, 1992, 46, 315-328]. The patterns of induction of the protein depend on whether the antipsychotic is typical or atypical [G. S. Robertson et al., J. Pharmacol. Exp. Ther., 1994, 271, 1058-1066; G. S. Robertson and H. C. Fibinger, Neuroscience, 1992, 46, 315-328]. These changes in expression of c-fos can be investigated by extraction of the proteins from the brain areas of interest, and analysis of the levels by electrophoresis (Western blot).

5-HT1A = biological target: T1, 5-HT1A (Homo sapiens, UniProt P08908); test: 5-HT1A receptor affinity; assay type: binding
T1 sequence (P08908 1-422): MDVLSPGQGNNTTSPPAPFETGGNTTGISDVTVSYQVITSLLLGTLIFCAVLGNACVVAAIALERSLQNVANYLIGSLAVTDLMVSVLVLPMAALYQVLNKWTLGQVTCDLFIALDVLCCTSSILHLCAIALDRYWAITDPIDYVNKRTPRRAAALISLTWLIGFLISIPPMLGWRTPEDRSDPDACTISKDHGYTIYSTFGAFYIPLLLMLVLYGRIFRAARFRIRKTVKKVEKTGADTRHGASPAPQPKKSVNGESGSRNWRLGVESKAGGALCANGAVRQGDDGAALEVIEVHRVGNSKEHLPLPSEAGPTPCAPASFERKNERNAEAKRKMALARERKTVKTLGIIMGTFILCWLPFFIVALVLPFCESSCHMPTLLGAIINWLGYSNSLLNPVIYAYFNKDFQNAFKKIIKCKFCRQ

SIGMA-1 (σ1) = SIGMA-1 (σ1) (Homo sapiens, UniProt Q99720); test: Sigma-1 receptor affinity; assay type: binding; conditions: SIGMA-1 (σ1) receptor
Chain of SIGMA-1 (σ1) (Q99720 whole entry): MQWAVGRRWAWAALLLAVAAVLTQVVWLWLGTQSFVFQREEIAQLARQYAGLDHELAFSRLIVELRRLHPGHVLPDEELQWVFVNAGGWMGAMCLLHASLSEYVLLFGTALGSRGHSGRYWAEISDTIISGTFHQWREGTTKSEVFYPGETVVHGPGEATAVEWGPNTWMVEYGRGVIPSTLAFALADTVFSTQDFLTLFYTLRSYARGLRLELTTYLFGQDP

SIGMA-2 (σ2) = SIGMA-2 (σ2) (Homo sapiens, UniProt Q5BJF2); test: Sigma-2 receptor affinity; assay type: binding; conditions: SIGMA-2 (σ2) receptor
Chain of SIGMA-2 (σ2) (Q5BJF2 whole entry): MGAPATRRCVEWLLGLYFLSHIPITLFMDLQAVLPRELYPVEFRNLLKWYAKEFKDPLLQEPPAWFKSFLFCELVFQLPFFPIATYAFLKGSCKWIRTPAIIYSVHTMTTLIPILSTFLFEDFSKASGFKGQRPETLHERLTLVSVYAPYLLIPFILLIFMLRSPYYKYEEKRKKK

| SMILES | Induction of catalepsy, DE-50 (catalepsy) | Induction of catalepsy, DE-50 (catalepsy; listed as haloperidol) | activity at 20 mg/kg (protein c-fos; read-out: Fos immunoreactivity % change relative to control, Dorsolateral groove, rat, acute treatment, 20 mg/kg s.c., % of saline group) | activity at 20 mg/kg (protein c-fos; read-out: Fos immunoreactivity % change relative to control, Medial area of prefrontal cortex, rat, acute treatment, 20 mg/kg s.c., % of saline group) | activity at 20 mg/kg (protein c-fos; read-out: Fos immunoreactivity % change relative to control, Nucleus accumbens, rat, acute treatment, 20 mg/kg s.c., % of saline group) | Ki (5-HT1A) | Ki (SIGMA-1 (σ1)) | Ki (SIGMA-2 (σ2)) | activity at 30 mg/kg (protein c-fos; read-out: Fos immunoreactivity % change relative to control, Dorsolateral groove) | activity at 30 mg/kg (protein c-fos; read-out: Fos immunoreactivity % change relative to control, Medial area of prefrontal cortex) | activity at 30 mg/kg (protein c-fos; read-out: Fos immunoreactivity % change relative to control, Nucleus accumbens) |
| --- | --- | --- | --- | --- | --- | --- | --- | --- | --- | --- | --- |
| O=C(CCCN1CCC(O)(c2ccc(Cl)cc2)CC1)c1ccc(F)cc1 [Haloperidol, haloperidol] | DE-50 = 0.14 mg/kg, | 0.14 mg/kg | – | – | – | – | – | – | – | – | – |
| Clc1ccc(C2=CCN(CCCCn3cncn3)CC2)cc1 [Example 2, 4-(4-chlorophenyl)-1,2,3,6-tetrahydro-1-[4-(1H-1,2,4-triazol-1-yl)butyl]pyridine hydrochloride] | – | – | 104% | 134% | 118% | 600 nM | 3.7 nM | 465 nM | – | – | – |
| CN1CCN(C2=Nc3cc(Cl)ccc3Nc3ccccc32)CC1 [Clozapine, clozapine] | Inactive up to 80 mg/kg | – | – | – | – | – | – | – | 110% | 134% | 118% |
